# Measured values taken from PMC13198257, “An aerosolized dual-action autotaxin inhibitor-PPARγ agonist for the treatment of pulmonary fibrosis” (Cell Reports Medicine, 2026).
# Columns and labels:
# [1] = PK of EL244: plasma and lung levels after i.p. or inhaled administration; type: in vivo, mice
# type 2 diabetes model = assay: HFD/STZ type 2 diabetes model, oGTT; type: in vivo, C57bl/6 male mice; conditions: i.p. 50 mg/kg daily, final 2 weeks
# Method: One-year old male mice were given a High-Fat Diet (D12492, Research Diets) for 10 weeks. During the sixth week of the HFD period, mice received three streptozotocin injections (40mg/kg). Control mice that were consuming a control diet (D12450Ji, Research Diets) received injections with the solvent of STZ, 50 mM sodium citrate buffer, pH 4.5. During the last two weeks of the HFD treatment, a subgroup of prediabetic mice was daily administered EL244 through intraperitoneal injections (50 mg/kg). Disease induction and EL244 efficacy were assessed using an Oral Glucose tolerance test (oGTT), as widely used.[64]^,[65]^,[66] 6-hr-fasted mice were administered a 10% glucose solution at 1 g/kg orally. Blood glucose levels were measured with a saccharometer before glucose administration and at 15, 30, 60, 90, and 120 min thereafter. Insulin resistance was assessed by the Area under curve (AUC) of the oGTT.
# NHLFs [2] = assay: TGF-β-induced normal human lung fibroblasts (NHLFs): fibrotic markers and PPARγ target genes; type: cell-based; conditions: 75 μΜ, TGFβ 10 ng/ml
# Method: Normal human lung fibroblasts (NHLFs), clone 832, were isolated from the adjacent healthy tissue of a patient undergoing open lung surgery for cancer at the Department of Pulmonology, Bichat-Claude Bernard Hospital, Paris/France; studies were approved by the Committee for Personal Protection (CPP)—Ile de France 1 (#0911932). The patient provided written consent to the use of his/her sample for research purposes; no compensation was provided. NHLFs were cultured in DMEM supplemented with 10% FBS, 1% penicillin/streptomycin, and 0.1% amphotericin B at 37 °C, 5% CO2 and ≥95% relative humidity.
# For experiments, NHLFs were seeded in 6-well plates at a density of 2 × 10^5 cells per well. After overnight serum starvation, cells were pre-treated with EL244 or vehicle (concentrations specified in the corresponding figures) for 1 h, followed by stimulation with TGFβ (10 ng/mL) for 24 h.
# Cells were washed twice with ice-cold 1× PBS and lysed in RIPA buffer containing 50 mM Tris-HCl (pH 7.4), 1 mM EDTA, 150 mM NaCl, 0.25% (w/v) sodium deoxycholate, 1% (v/v) Triton X-100, 0.1% (w/v) SDS and 1 mM PMSF. Equal amounts of protein extracts (30 μg) were separated into 10% SDS-PAGE gels and subsequently electro-transferred onto nitrocellulose membranes. Membranes were blocked for 1 h at room temperature in 1X TBS-T containing 5% non-fat dry milk. […] Immunoreactive protein bands were detected using ECL.
# NHLFs [3] = assay: Mitotracker assay in NHLFs; type: cell-based, human; conditions: 25 μM, TGFβ 10 ng/mL, 24 h
# Method: NHLFs were plated at a density of 1,2 × 10^4 cells/well of a 96-well plate. The next day TGFβ (10 ng/mL) and EL244 (25 μM) or vehicle (DMSO) were added to the respective wells and incubated for 24 h. Medium was replaced with DMEM without phenol red that contained LumiTracker Mito Red CMXRos at 25 nM and a 30 min incubation followed. Medium was replaced with fresh DMEM without phenol red and without Lumitracker. Fluorescence was measured (excitation at 580 nm and reading at 600 nm) with a Tecan M200 Fluorimeter and normalized with cell number per well as measured with a Tecan Cyto Spark after cell fixation with PFA at a final concentration of 2%.
# liver = assay: Serum ALT/AST after 2 weeks of inhaled EL244; type: in vivo, mice; conditions: 2 weeks inhaled 15 mg/kg o.d.
# Method: Figure S7. Inhaled prophylactic EL244 administration attenuates BLM-induced pulmonary fibrosis. Related to […]
# EL244 was administered via inhalation at 15 mg/kg, once daily, from one day before to 14 days after bleomycin (BLM) administration (day 0). The compound was dissolved in 15% Kolliphor in saline. The vehicle (15% Kolliphor in saline) was administered to both the SAL and BLM control groups.
# (A) Weight change in the different mouse groups during the 2 weeks of the pulmonary fibrosis experiment.
# (B-D) Respiratory mechanics assessed using the FlexiVent system (n=6,8,7). Parameters include mean static lung compliance (B), mean respiratory system compliance (C) and mean total lung capacity (D).
# (E) Total protein concentration in BALFs, as determined with the Bradford assay (n=6,8,7).
# (F) Inflammatory cell numbers in BALFs, as counted with a hematocytometer (n=6,8,7).
# (G) Soluble collagen levels in the BALFs were detected with the direct red assay (n=6,8,7). […]
# (J) Quantification of fibrosis severity in H&E-stained lung sections via Ashcroft scoring (n=6,8,7). […]
# Following normality testing, statistical significance was assessed with one-way ANOVA and post-hoc Tukey’s test (B, C, D, E, K/ALT, K/ALT/AST) or Welch ANOVA and post-hoc Games-Howell test (F, G, H, J) or Kruskal Wallis and post-hoc Dunn’s test (K/AST); */**/***/**** denote p<0.05/0.01/0.001/0.0001, respectively.
smiles,measurement,setting,value
"O=C1NC(=O)C(Cc2ccc(OCCC3CCN(C(=O)OCc4cc(Cl)cc(Cl)c4)CC3)cc2)S1 (stereo not drawn) [EL244, 3,5-dichlorobenzyl 4-(2-(4-((2,4-dioxothiazolidin-5-yl)methyl)phenoxy)ethyl)piperidine-1-carboxylate]",Plasma concentration,"[1]; i.p. 30 mg/Kg, 3 h",~35 μΜ
same,Clearance rate from the lung and absorption in the systemic circulation,[1]; inhaled 15 mg/kg,low
same,Retention in the lung,[1]; inhaled 15 mg/kg,highly retained in the lung
same,concentration at 1 h,"[1]; mouse, plasma, ip, i.p. 30 mg/Kg, 1 hour",40 µM
same,concentration at 9 h,"[1]; mouse, plasma, ip, i.p. 30 mg/Kg, 9 h post-dose",15 µM
same,Glucose levels,type 2 diabetes model,lower glucose levels
same,Insulin resistance (AUC of oGTT),type 2 diabetes model,decreased insulin resistance
same,PPARγ target gene expression in adipose and liver tissue,type 2 diabetes model,stimulated the expression of several PPARγ target genes
same,Col1a1 and Acta2 (aSMA) mRNA and protein,NHLFs [2],suppressed
same,PPARγ target genes and PPARγ expression,NHLFs [2],stimulating the expression of PPARγ target genes
same,TGF-β-induced mitochondrial activation,NHLFs [3],reduced TGF-β-induced mitochondrial activation
same,Liver toxicity (ALT/AST levels),liver,did not cause any appreciable toxicity in the liver
